{
  "source": "patent US7728105B2",
  "about": "“Peptides impairing PBX dependent gene regulation” (St. George's Hospital Medical School, priority 2002, dated 2010)",
  "assay_type_in_all_cases": "cell-based, human",
  "key": {"[1]": {"test_system": "KG1a, KG1, HL60 and U937 cells", "assay": "Cell cycle analysis (propidium iodide, flow cytometry) of leukaemic cell lines (Example 1)", "procedure": "Cells to be investigated were harvested and washed in PBS at 400 g for 10 min. Pelleted cells were then fixed in ice-cold 70% ethanol. Fixed cells were subsequently washed twice in PBS (600 g; 10 min) and incubated in 100 μl of ribonuclease (100 μg/ml; Sigma Aldrich) for 5 min (room temperature) prior to addition of 400 μl of propidium iodide (50 μg/ml; Sigma Aldrich) and 30 minutes incubation (37° C.). Cells were then analysed for cell cycle status on FACScan flow cytometer (Becton Dickinson, USA) and using WinMDI and Cylchred softwares."}, "AC133+ cells": {"test_system": "AC133+ cells", "assay": "RT-PCR of CD38 and HOX genes in AC133+ cells", "procedure": "Total RNA was extracted from cultured human cells using the Rneasy mini kit (Quiagen) and following the manufacturer's instructions. 3 μg of RNA was used in subsequent reverse transcription reactions. The RNA was mixed with a poly T15 oligo to 5 microgrammes/ml and heated to 75° C. for 5 minutes. After cooling on ice, the following additional reagents were added; dNTPs to 0.4 mM, RNase OUT (Promega) to 1.6 U/μl, Moloney Murine Leukemia Virus Reverse Transcriptase (M-MLRvT) RnaseH— point mutant (Promega) to 8 U/μl and the appropriate buffer (supplied by the manufacturer) to x1 concentration. The mixture was incubated for one hour at 37° C., heated to 70° C. for two minutes and cooled on ice.\nPCR reactions were all performed in a total volume of 40 μl. For each we used 1 μl of the M-MLRvT reaction (as described above), 0.2 nmols of each primer and 20 microliters of Redimix pre-mixed PCR components (Sigma). All reactions were cycled at 94° C. for 30 seconds, 55° C. for 30 seconds and 72° C. for 60 seconds. 30 cycles were used for all primer sets except those for beta-actin, for which 23 cycles were used."}, "CD133+ cells": {"test_system": "CD133+ cells", "assay": "CD133+ cell proliferation in cytokine supplemented liquid culture over 18 days", "procedure": "CD133+ cells (another name for AC133+ cells) were seeded in duplicate at 4×10^4 cells/ml in IMDM (Life Technologies), 10% FCS (Sigma Aldrich) and gentamycin (50 μg/ml Life Technologies) and Thrombopoietin (TPO) 10 ng/ml, Flt3-Ligand (FL) 50 ng/ml & c-KitL (K) 20 ng/ml), all obtained from R and D systems Ltd., UK. (Forraz et al., 2002). The HXP peptide (N-term: WYPWMKKHHRQIKIWFQNRRMKWKK: C-term; Eurogentec, Belgium) and control CXP peptide (N-term: WCCLADRHGRQIKIWFQNRRMKWKK: C-term; Eurogentec, Belgium) were added to culture medium at a concentration of 20 μg/ml. To withdraw peptides from culture, cells were washed twice in IMDM or RPMI and reseeded at prewash cell densities. Primary cells were cultured for 3 weeks at 37° C., 5% CO2 in humidified atmosphere and enumerated by a […] exclusion method with a heamocytometer."}, "[2]": {"test_system": "KG1a, HL60 and U937 leukaemic cell lines", "assay": "RT-PCR of HOX/PBX target genes in leukaemic cell lines (Example 3)", "procedure": "Total RNA was isolated from liquid nitrogen snap-frozen cells using RNeasy Mini Kit protocol (Qiagen, Crawley, UK). 50 μl reverse transcription reactions using 1 μg of RNA per reaction heated at 75° C. cDNA with 1 μg of oligo-dT for 10 mins. Samples were cooled on ice and mixed with 200 units of M-MLV reverse transcriptase (Promega, Southampton, UK) in its associated buffer, 400 μM of dNTPs (Promega), and 40 units of RNAseout (Invitrogen, Paisley, UK). Samples were then incubated at 37° C. for one hour and finally heated at 75° C. for 5 mins. PCR reactions (35 cycles, 94° C. 30 sec, 55° C. 30 sec, 72° C. 1 min) were carried out in a 20 μl reaction using JumpStart ReadyMix REDTaq DNA polymerase (Sigma-Aldrich) using an identical amount of cDNA per reaction with 1 μM of forward and reverse primers."}, "[3]": {"test_system": "KG1a, HL60 and U937 cells", "assay": "Cell cycle of leukaemic cell lines synchronised in G0-G1 with L-mimosine", "conditions": "HL60 and U937 synchronised in G0-G1, over 48 hours, vs control peptide", "procedure": "The proportion of KG1a, HL60 and U937 cells in G0-G1 phase of the cell cycle upon HXP peptide treatment was compared to CXP4. Cells were synchronised in G0-G1 phase of the cell cycle by exposure to 0.5 mM L-mimosine. Results are expressed as the mean percentage of four experiments (+/−SE).\nKG1a, HL60 and U937 cell cycle profiles were analysed over 48 hours in culture with HXP peptide or the control peptide (FIG. 10). The effect of HXP peptide on non-synchronised cells varied considerably (data not shown)."}, "[4]": {"test_system": "Hox genes in malignant cell lines", "assay": "RT-PCR of HOX gene expression in malignant cell lines", "conditions": "20 μg/ml, at least two different Hox genes in each case", "procedure": "A number of cell lines representing different malignancies were grown in culture for seven days, and HXP peptide or the control peptide CXP were added to a final concentration of 20 μg/ml on day 3. The bars represent the fold increase of each cell line over the seven days; the empty, dashed bars indicate the CXP peptide treated cells, whilst the solid bars indicate the addition of HXP peptide. Error bars represent the standard error the mean, and n is the number of experiments performed. The cell lines used were: AML—KG1a; Bladder—HT; Breast—SKBR3; Cervical—HeLa; Colon—Colo41; Gastric—MKN-45; Large cell lung cancer—MES; Melanoma—DX3; Ovarian—1847; Pancreatic—Panc-Tu1; Prostate—LNCAP; Renal—HT1376; Small cell lung cancer—NCI-h510A. The change in the expression of the HOX genes expressed by each cell line was assessed by RT-PCR on RNA extracted from the cells at the end of seven days. ‘HOX gene inactivated’ means that the level of expression of each of the listed HOX genes was at least five fold lower in the HXP peptide treated cells compared to the control. *Analysis not yet complete.\nThe sequences of RT-PCR primers used are set out below. For each primer pair, the amplified region is given in relation to the known gene sequence as available through GenBank (http://www.ncbi.nlm.nih.gov/entrez)."}},
  "data": [
    {"substance": "WYPWMKKHHRQIKIWFQNRRMKWKK [HXP peptide]", "values": [
      {"measurement": "effect on cell cycle of more mature leukaemic cells", "setting": "[1]; HL60 and U937", "value": "slowed"},
      {"measurement": "effect on cell cycle of immature leukaemic cells", "setting": "[1]; KG1 and KG1a", "value": "may be propelled into the cell cycle"},
      {"measurement": "CD38 gene expression", "setting": "AC133+ cells", "value": "up-regulation"},
      {"measurement": "HOX B4, B8 and A9 gene expression", "setting": "AC133+ cells; from as early as day 3", "value": "down-regulated"},
      {"measurement": "inhibition of CD133+ cell growth compared to CXP peptide-treated cells", "setting": "CD133+ cells; day 18, 20 μg/ml, average, p<0.001", "value": 3.7, "unit": "fold"},
      {"measurement": "CD133+ cell proliferation after withdrawal of HXP peptide", "setting": "CD133+ cells; withdrawal at day 7, compared to 18 day-HXP peptide treated cells, p<0.01", "value": "resumption of cell proliferation"},
      {"measurement": "MMP19 expression", "setting": "[2]; KG1a", "value": "down-regulated"},
      {"measurement": "MMP1 expression", "setting": "[2]; KG1a and U937 cells", "value": "down-regulated"},
      {"measurement": "CD38 gene expression", "setting": "[2]; KG1a cell line", "value": "up-regulation"},
      {"measurement": "CD133, CD34, HOXB4, B8 and A9 gene expression", "setting": "[2]; KG1a cell line", "value": "down-regulation"},
      {"measurement": "expression of the other genes examined", "setting": "[2]; KG1a, HL60, U937, except CDC25, MMP1, MMP19 as stated", "value": "did not alter"},
      {"measurement": "CD38 gene expression", "setting": "[2]; U937 and HL60 cell lines", "value": "up-regulated"},
      {"measurement": "HOXB4 and A9 gene expression", "setting": "[2]; U937 and HL60 cell lines", "value": "down-regulation"},
      {"measurement": "HOXB8 gene expression", "setting": "[2]; U937 and HL60 cell lines", "value": "unchanged"},
      {"measurement": "CDC25 expression", "setting": "[2]; U937 cells", "value": "down-regulated"},
      {"measurement": "N-RAS oncogene expression", "setting": "[2]; all of the cell lines (KG1a, HL60, U937)", "value": "completely down-regulated"},
      {"measurement": "proportion of cells leaving phase G0-G1 and entering the cell cycle", "setting": "[3]", "value": "induces a significantly higher proportion of cells to leave the phase G0-G1 and enter the cell cycle"},
      {"measurement": "Hox gene expression in each cancer cell line with reduced proliferation", "setting": "[4]", "value": "transcriptionaly silenced"}
    ]}
  ]
}
